Data from patent publication US20240140944A1, “NOVEL NAPHTHYRIDINONE DERIVATIVE HAVING INHIBITORY ACTIVITY AGAINST ECTONUCLEOTIDE PYROPHOSPHATASE-PHOSPHODIESTERASE AND USE THEREOF” (TXINNO BIOSCIENCE INC., priority 2020, published 2024).

Key:
[1] = tested on: interferon regulatory factor 3 (IRF3) in HCT116-Dual cells; assay: HCT116-Dual Cell Luciferase Assay (ISG54 promoter, IRF3 activity); assay type: cell-based; settings: ENPP1 inhibitor usually 10 μM plus cGAMP 10 μM, 48 hours, Lucia luciferase
From the text: HCT116-Dual™ cells express genes encoding luciferase secreted under the control of the interferon-stimulated gene 54 (ISG54) promoter along with five interferon-stimulated response elements. The HCT116-Dual™ cell line was used to measure and monitor the activity of interferon regulatory factor 3 (IRF3), which induces production of type I interferon and relates to downstream signaling, and Lucia secreted in the culture medium was used to generate luminescence in a luciferase reaction.
HCT116-Dual™ cells were cultured at 2×10^4 cells/well (93.4 μL) in a 96-well plate for one day in a DMEM medium containing 10% FBS and 25 mM HEPES (pH 7.2-7.5). The cells were treated with 3.3 μL of ENPP1 inhibitor (usually 10 μM) and then 3.3 μL of cGAMP (10 μM) to set the final volume to 100 μL (The final fraction of DMSO was 0.1%). The cells treated with ENPP1 inhibitor and cGAMP were cultured at 37° C. for 48 hours and 50 μL of Quanti-Luc reaction solution was added to 20 μL of cell culture medium to measure luciferase activity. The increase in interferon regulatory factor 3 (IRF3) by the compound compared to cGAMP was determined as fold.

[2] = molecular target: T1, human recombinant ENPP1 enzymes (Homo sapiens, UniProt P22413); assay: ENPP1 Enzyme Assay with cGAMP Substrate (AMP-Glo); assay type: biochemical; settings: human recombinant ENPP1 3 ng/reaction, cGAMP 5 μM, 37° C. 90 minutes, average of two or more tests; read-out: Enzymatic activity IC50
T1 construct: purchased R & D systems
T1 sequence (P22413 1-925): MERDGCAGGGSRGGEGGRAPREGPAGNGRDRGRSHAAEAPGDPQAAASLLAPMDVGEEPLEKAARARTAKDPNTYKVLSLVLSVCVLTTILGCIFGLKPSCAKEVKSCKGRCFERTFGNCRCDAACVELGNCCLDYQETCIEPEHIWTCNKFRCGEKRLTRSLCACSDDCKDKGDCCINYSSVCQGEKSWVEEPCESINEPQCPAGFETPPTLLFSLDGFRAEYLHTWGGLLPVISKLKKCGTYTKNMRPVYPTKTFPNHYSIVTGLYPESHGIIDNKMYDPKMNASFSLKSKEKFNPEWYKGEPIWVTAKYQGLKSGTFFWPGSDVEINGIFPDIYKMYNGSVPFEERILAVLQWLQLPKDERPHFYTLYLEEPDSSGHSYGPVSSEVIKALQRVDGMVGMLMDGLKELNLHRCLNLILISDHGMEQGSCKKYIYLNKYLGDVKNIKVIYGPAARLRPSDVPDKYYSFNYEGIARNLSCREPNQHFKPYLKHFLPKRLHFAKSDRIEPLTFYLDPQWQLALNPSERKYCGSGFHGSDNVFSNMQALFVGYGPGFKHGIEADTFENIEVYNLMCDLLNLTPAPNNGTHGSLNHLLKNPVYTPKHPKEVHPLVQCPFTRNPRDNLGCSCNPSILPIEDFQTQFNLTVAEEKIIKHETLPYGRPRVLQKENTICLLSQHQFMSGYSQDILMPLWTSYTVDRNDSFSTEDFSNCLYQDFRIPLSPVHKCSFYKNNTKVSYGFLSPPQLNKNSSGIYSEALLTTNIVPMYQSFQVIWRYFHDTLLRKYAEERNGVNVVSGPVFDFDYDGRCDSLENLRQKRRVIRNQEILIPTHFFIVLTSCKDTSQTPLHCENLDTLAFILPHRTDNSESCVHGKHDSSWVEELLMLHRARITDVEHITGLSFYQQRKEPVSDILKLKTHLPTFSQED
Procedure, shortened: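 Human recombinant ENPP1 (3 ng/reaction) preincubated 5–10 min at RT with inhibitor, then reacted with 5 µM cGAMP for 90 min at 37 °C in 50 mM Tris pH 8.5, 250 mM NaCl, 0.5 mM CaCl2, 1 µM ZnCl2, 1% DMSO. AMP produced read by AMP-Glo luminescence; IC50 from 3-parameter fit, averaged over ≥2 runs.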

IC50 [2]	Structure (SMILES)	Cellular activity: increase in IRF3 by the compound compared to cGAMP, as fold [1]
< 1000 nM	NS(=O)(=O)NCc1cccc(-c2ccnc3c2CCC(=O)N3)c1 [Example 140, N-(3-(7-oxo-5,6,7,8-tetrahydro-1,8-naphthyridin-4-yl)benzyl)sulfamide]	B (1< Fold <2)
< 1000 nM	NS(=O)(=O)NCc1ccc(-c2ccnc3c2CCC(=O)N3)cc1F [Example 142, N-(2-fluoro-4-(7-oxo-5,6,7,8-tetrahydro-1,8-naphthyridin-4-yl)benzyl)sulfamide]	B (1< Fold <2)
< 1000 nM	Cl.NS(=O)(=O)N1CCc2ccc(-c3ccnc4c3CCC(=O)N4)cc2C1 [Example 145, (7-(7-oxo-5,6,7,8-tetrahydro-1,8-naphthyridin-4-yl)-3,4-dihydroisoguinolin-2(1H)-yl)sulfamide hydrochloride]	B (1< Fold <2)
